The results in this text go back to patent publication US20160120840A1, “METHOD AND COMPOSITION FOR TREATING NONEROSIVE REFLUX DISEASE” (SUCAMPO AG, priority 2014, published 2016).

The subject of assay [1] is esophagus tissues (non-erosive esophageal damage induced by TCA and DCA). The assay is described as follows: Effect on non-erosive esophageal damage: tissue conductance of esophagus in Ussing chamber after TCA+DCA treatment. Format: in vivo, C57Bl/6J mice. To be noted: mice given 4 mM TCA and 2 mM DCA in drinking water for 6 days, Compound A in drinking water for the same period; versus TCA+DCA control; FIG. 1. How it is done:
Effect on non-erosive esophageal damage Male or female C57Bl/6J mice were allowed free access to drinking tap water containing 4 mM taurocholic acid (TCA) and 2 mM deoxycholic acid (DCA) for 6 days. On the day after treatment with TCA and DCA, the mice were sacrificed and their esophagus was removed. The esophagus tissues were divided into two parts and distal parts were used for the study. Each tissue was mounted in the Ussing chamber and short-circuit currents were measured. Compound A ((−)-7-{(2R,4aR,5R,7aR)-2-[(3S)-1,1-difluoro-3-methylpentyl]-2-hydroxy-6-oxooctahydrocyclopenta[b]pyran-5-yl}heptanoic acid) was administered to mice in drinking water for the same period of TCA+DCA treatment. Tissue conductance calculated based on the short-circuit current data was used as an index of tissue damage.

In assay [2] the test system is mouse esophageal tissues (epithelial layer). The experiment in a line: HE staining of mouse esophageal tissues. Type of assay: in vivo. To be noted: 6 days of treatment, Compound A with TCA/DCA; FIG. 2. The text has this:
The mouse esophageal tissues were isolated after 6 days of treatment with control vehicle or drugs (DMSO, TCA/DCA, or Compound A with TCA/DCA). The tissues were separated into two parts, and their lower parts were used for preparation of RT-PCR samples as well as for electrophysiological examination and HE staining. The samples for HE staining were fixed with 10% neutral buffered formalin solution for 12 hrs, after which they were dehydrated and fixed in paraffin. The samples were sliced into 7 μm thick slices in a microtome, and then placed on slide glasses at 43° C. for lhr and then at 55° C. overnight. Following this, tissues were stained with Hematoxylin and Eosin staining solution. The samples were evaluated in a suitable microscope (Olympus EX-43).

In the next assay the test system is claudin-2. The assay is described as follows: Quantitative real-time RT-PCR, claudin-2 expression in mouse esophagus tissue. Format: in vivo. The conditions noted are these: 6 days, TCA/DCA with 50 μM Compound A in drinking water, n=3; FIG. 3. The method, then: (§1) mRNA was prepared from mouse esophagus tissue after 6 days of treatment with vehicle or active agents (Group1:DMSO control, Group2:TCA/DCA positive control, and Group3:TCA/DCTA with 50 μM Compound A in drinking water, n=3 in each group) and reversely transcribed to cDNA by reverse transcriptase (Superscript III, Invitrogen).
(§2) Expression levels of claudin-2 which is expressed in cation-leaky epithelia, and claudin-4 which is a component of tight junction strands (PNAS 107(17), 8011-8016, 2010; Development Biology 312, 509-522, 2007; and Seminars in Cell & Developmental Biology 36 166-176, 2014), were normalized to GAPDH expression by calculating the A Ct=(Ct of GAPDH−Ct of gene). Setting the expression value of GAPDH to 1.0, the relative expression values were then calculated as 2̂ΔCt.
(In general: Quantitative PCR measures a nucleic acid by following its amplification.)

The subject of a further assay is claudin-4. The assay is described as follows: Quantitative real-time RT-PCR, claudin-4 expression in mouse esophagus tissue. Format: in vivo. To be noted: 6 days, TCA/DCA with 50 μM Compound A in drinking water, n=3; FIG. 4. The method, then: as §1, §2

For `CC[C@H](C)CC(F)(F)[C@@]1(O)CC[C@H]2[C@@H](CC(=O)[C@@H]2CCCCCCC(=O)O)O1` [Compound A, (−)-7-{(2R,4aR,5R,7aR)-2-[(3S)-1,1-difluoro-3-methylpentyl]-2-hydroxy-6-oxooctahydrocyclopenta[b]pyran-5-yl}heptanoic acid], the “Tissue conductance (index of tissue damage)” value in assay [1] is “reduced from that found in control animals”. Moreover, the “Tissue structure (HE staining), damage of epithelial layer by bile acids” value in assay [2] is “restores or protects against damage by bile acids histologically”. Further, the “Expression level of claudin-2 (normalized to GAPDH)” value with claudin-2 is “downregulated”. For the same molecule, in the assay on claudin-4, the “Expression level of claudin-4 (normalized to GAPDH)” value is on record as “upregulated”.
